Test results reported in publication PMC7707092, “Discovery and characterization of ORM‐11372, a novel inhibitor of the sodium‐calcium exchanger with positive inotropic activity” (British Journal of Pharmacology, 2020).

Test system: human ventricular trabeculae

Nc1cccc(-c2ccc(CNc3ccc(F)cc3)o2)c1 [ORM‐11372]
STV and triangulation (pro‐arrhythmia markers) (1 or 2 Hz, ORM‐11372 any tested concentration, dofetilide 0.1 μM (positive control)): no effects | APD30, APD50 and APD90 (up to 10 μM, 1‐ and 2‐Hz pacing): no significant changes
